Results as given in patent US20020107269A1, “Benzoxazole LPAAT-B inhibitors and uses thereof” (CELL THERAPEUTICS, INC., priority 2000, published 2002).

What was measured:
[1] = molecular target: T1, LPAAT-β (Homo sapiens, UniProt O15120); experiment: LPAAT-β colorimetric assay (DTNB detection of released CoA); assay type: biochemical; settings: Sf9 cell membrane overexpressing LPAAT-β; 18:1-CoA and sn-1-18:1 lysoPA; absorbance at 405 nm; read-out: LPAATβ Colorimetric Assay IC50
T1 construct: the full-length human LPAAT-β cDNA was amplified by PCR; poly-histidine tag (N); made in house; host or cells: Sf9 insect cells (baculovirus, pFastBac HTc); membrane fraction used
T1 sequence (O15120 24-278): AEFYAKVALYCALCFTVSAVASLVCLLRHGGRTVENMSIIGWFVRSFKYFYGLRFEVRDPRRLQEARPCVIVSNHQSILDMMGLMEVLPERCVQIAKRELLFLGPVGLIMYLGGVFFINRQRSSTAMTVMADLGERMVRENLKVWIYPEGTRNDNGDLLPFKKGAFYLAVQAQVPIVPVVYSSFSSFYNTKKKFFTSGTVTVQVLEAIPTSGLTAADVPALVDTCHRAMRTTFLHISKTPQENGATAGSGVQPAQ
Excerpt: For the construction of Baculovirus expression vectors, the full-length human LPAAT-β cDNA was amplified by PCR from the DNA template pCE9.LPAAT-β (West et al., DNA Cell Biol. 16:691-701 (1997)) using the primers 5′-TGATATCCGAAGAAGATCTTATGGAGCTGTGGCCGTGTC-3′ (olpb1F) and 5′-CAGGCTCTAG ACTACTGGGC CGGCTGCAC-3′ (olpb1R). The ˜870 bp fragment generated was reamplified by PCR using the primers 5′ CCTACGTCG ACATGGAACAAAAATTGATATCCGAAGAAGATC-3′ (olpb2F) and 5′-CAGGCTCTAG ACTACTGGGC CGGCTGCAC-3′ (olpb1R). The ˜890 bp fragment generated was then cleaved with Sal I and Xba I for insertion into pFastBac™ HTc vector (Life Technologies, Gaithersberg, Md.) between the Sal I and Xba I sites for the generation of the plasmid pFB.LPAAT-β. This plasmid was then transformed into E. coli DH10Bac™ (Life Technologies, Gaithersberg, Md.) for the generation of recombinant Bacmid DNA for transfection into HighFive (Invitrogen, San Diego, Calif.) or SF9 insect cells for the production of recombinant Baculovirus stocks using the protocol described in the Bac-to-Bac® Baculovirus Expression System (Life Technologies, Gaithersberg, Md.), a eukaryotic expression system for generating recombinant baculovirus through site-specific transposition in E. coli. Viral stocks harvested from the transfected cells can then be used to infect fresh insect cells for the subsequent expression of LPAAT-β fusion protein with a poly-histidine tag and a myc-epitope near its N-terminus. The membrane fraction from these Sf9 cells would be the source of LPAAT enzyme.
For the preparation of membranes From Sf9 Cells, all steps are performed on ice or at 4° C. Sf9 cell pellets ([…]) were thawed and resuspended in 1-2 ml of buffer A (20 mM Hepes, pH 7.5, 1 mM DTT, 1 mM EDTA, 20% w/v glycerol, 1 mM Benzamidine, 1 μg/ml soybean trypsin inhibitor (SBTI), 1 μg/ml pepstatin A) w/o DTT but with 1 mM Pefabloc. The cells were lysed by sonication using a Branson Sonifier at output=2, duty cycle=2, 10 pulses each at 10 s. with the tip of small sonicator probe submerged but not touching the walls. DTT was then added to 1 mM from a 1M stock. The samples were centrifuged at 1500 rpm for 5 min. The low speed supernatant was saved and centrifuged (TLA 100.3 rotor, polycarbonate tubes, 2 ml/tube or 1.5 ml/tube minimum) at 100000×g for 1 hr. The high speed pellet was resuspend in Buffer A with a probe sonicator (10 pulses @ output #2 and duty cycle 20%) as a source of LPAAT enzyme.
LPAAT-β catalyzes the transfer of an acyl group from a donor such as acyl-CoA to LPA. The transfer of the acyl group from acyl-CoA to LPA leads to the release of free CoA, which can be reacted with the thiol reagent, 5,5′-dithiobis(2-nitrobenzoic acid) (DTNB). The reaction between DTNB and the free sulfhydryl group from CoA generates a yellow-colored product, 3-carboxylato-4-nitrothiophenolate (CNP), that absorbs at 413 nm. LPAAT-β derived from Sf9 cell membrane overexpressing LPAAT-β were resuspended in HEPES saline buffer (20 mM HEPES pH 7.5, 150 mM NaCl), 1 mg/ml BSA and 72 μl aliquots were distributed into 96-well microtiter plates. 8 μl of compound of interest at 200 μM dissolved in 100% DMSO was added into each well. 20 μl of 1 mM 18:1-CoA and 1 mM sn-1-18:1 lysoPA was then added to each well to initiate the reaction and allowed to run at room temperature for 25 min. 100 μl of 1 mM DTNB in 100% ethanol was then added to each well to quench the reaction and for color development. The absorbance at 405 nm, measured using a spectrophotometer plate reader, is proportional to the activity of LPAAT-β in the sample. This calorimetric assay was used for the high throughput screening of LPAAT inhibitors. […] Compounds that gave a reading of less than 0.06 arbitrary units (indicated by arrow on right margin) were selected for further study.

[2] = test system: human breast tumor MCF-7 cells; experiment: Proliferation of MCF-7 cells by CyQUANT analysis; assay type: cell-based; settings: MCF-7 cells in microplates, FIG. 5E
Protocol: To determine whether administration of LPAAT-β inhibitor would have any effect on cell proliferation in tissue culture, proliferation of human breast tumor MCF-7 cells in microplates were measured by CyQUANT analysis using a green-fluorescent nucleic acid stain optimized to produce a linear detection range from 50 to 50,000 cells in 200 μl volume (Molecular Probes, Eugene, Oreg.) in the presence of various concentrations of a LPAAT-β inhibitor.

Structure (SMILES) | IC50 [1] [nM] | concentration effective in blocking the proliferation of MCF-7 cells [2] [µM]
N#CCC(=O)Nc1ccc(Cl)c(-c2nc3cccnc3s2)c1 [CT-32315, N-(4Chloro-3-thiazolo[5,4,b]pyridin-2-yl-phenyl)-2-cyano-acetamide] | 110 | –
CCC(=O)Nc1ccc(Cl)c(-c2nc3ccc(C)cc3o2)c1 [N-[4-Chloro-3-(6-methyl-benzooxazol-2-yl)-phenyl]-propionamide] | – | ≥ 20
